Test results taken from patent publication US11471512B2, “Pharmaceutical compositions of a peptide” (Merck Sharp & Dohme Corp., priority 2019, dated 2022).
Starred links: 1 amine or outer side, 2 acyl side, 3 side chain; linkers in the order of their positions; H or OH if unused. Non-standard residues stand in square brackets, D forms with d. Residues, ends and D or L forms follow the SMILES beside them. Groups on a side chain read outwards from the residue. *: point of attachment. γGlu = O=C(O)[C@H](CCC(=O)[*:2])N[*:1]; Palmitoyl = CCCCCCCCCCCCCCCC(=O)*; Aib = CC(C)(N)C(=O)O

Columns and labels:
[1] = Water solubility of the peptide as a function of pH; type: physicochemical; conditions: between pH 4 and pH 6
[2] = Chemical stability of the peptide in aqueous formulation as a function of pH; type: physicochemical; conditions: above pH 7.6

CCCCCCCCCCCCCCCC(=O)N[C@@H](CCC(=O)N[C@@H](CCC(=O)NCCCC[C@H](NC(=O)[C@H](CC(=O)O)NC(=O)[C@H](CO)NC(=O)[C@@H](NC(=O)[C@H](Cc1ccccc1)NC(=O)[C@@H](NC(=O)CNC(=O)[C@H](CCC(N)=O)NC(=O)C(C)(C)NC(=O)[C@@H](N)Cc1c[nH]cn1)[C@@H](C)O)[C@@H](C)O)C(=O)N[C@@H](CO)C(=O)N[C@@H](CCCCN)C(=O)N[C@@H](Cc1ccc(O)cc1)C(=O)N[C@@H](CC(C)C)C(=O)N[C@@H](CC(=O)O)C(=O)NC(C)(C)C(=O)N[C@@H](CCCNC(=N)N)C(=O)N[C@@H](C)C(=O)N[C@@H](C)C(=O)N[C@@H](CCC(N)=O)C(=O)N[C@@H](CC(=O)O)C(=O)N[C@@H](Cc1ccccc1)C(=O)N[C@H](C(=O)N[C@@H](CCC(N)=O)C(=O)N[C@@H](Cc1c[nH]c2ccccc12)C(=O)N[C@@H](CC(C)C)C(=O)N[C@@H](CCSC)C(=O)N[C@@H](CC(N)=O)C(=O)N[C@H](C(=O)N[C@@H](CCCCN)C(=O)N[C@@H](CCC(N)=O)C(=O)O)[C@@H](C)O)C(C)C)C(=O)O)C(=O)O [peptide of SEQ ID NO. 1, HUQGTFTSD K(γGlu-γGlu-C16) SKYLD aibRAAQDFVQWLMNTKγGlu-amide] (H-H[Aib]QGTFTSDK([γGlu-γGlu-Palmitoyl])SKYLD[Aib]RAAQDFVQWLMNTKQ-OH; N-terminus and C-terminus assumed)
water solubility [1]: poor water solubility
chemical stability [2]: poor chemical stability
